PubChem BioAssay AID2060495 (Molecular Pharmacology Branch, DTP, NCI, 2025)

System: 521955-158-R2-J5-PDC complex spheroid viability
Test: Anticancer human tumor 521955-158-R2-J5-PDC patient-derived pancreatic carcinoma cell line growth inhibition [GQUAD]
Conditions: for IC50: curve of first compound; for viability, T/C: stronger effect = lower value
Procedure, shortened: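 Multi-cell-type spheroids of tumor cells with HUVEC and mesenchymal stem cells, treated with drug combinations. Concentrations descend in half-log steps from near clinical Cmax, or from 10 microM where Cmax is unknown; viability read-out.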

[1] = second compound 0.0316 µM, first compound 0.0316 µM
[2] = second compound 0.0316 µM, first compound 0.1 µM
[3] = second compound 0.0316 µM, first compound 0.316 µM
[4] = second compound 0.0316 µM, first compound 1 µM
[5] = second compound 0.0316 µM, first compound 3.16 µM
[6] = second compound 0.0316 µM, first compound 10 µM
[7] = second compound 0.1 µM, first compound 0.0316 µM
[8] = second compound 0.1 µM, first compound 0.1 µM
[9] = second compound 0.1 µM, first compound 0.316 µM
[10] = second compound 0.1 µM, first compound 1 µM
[11] = second compound 0.1 µM, first compound 3.16 µM
[12] = second compound 0.1 µM, first compound 10 µM
[13] = second compound 0.316 µM, first compound 0.0316 µM
[14] = second compound 0.316 µM, first compound 0.1 µM
[15] = second compound 0.316 µM, first compound 0.316 µM
[16] = second compound 0.316 µM, first compound 1 µM
[17] = second compound 0.316 µM, first compound 3.16 µM
[18] = second compound 0.316 µM, first compound 10 µM
[19] = second compound 1 µM, first compound 0.0316 µM
[20] = second compound 1 µM, first compound 0.1 µM
[21] = second compound 1 µM, first compound 0.316 µM
[22] = second compound 1 µM, first compound 1 µM
[23] = second compound 1 µM, first compound 3.16 µM
[24] = second compound 1 µM, first compound 10 µM
[25] = second compound 3.16 µM, first compound 0.0316 µM
[26] = second compound 3.16 µM, first compound 0.1 µM
[27] = second compound 3.16 µM, first compound 0.316 µM
[28] = second compound 3.16 µM, first compound 1 µM
[29] = second compound 3.16 µM, first compound 3.16 µM
[30] = second compound 3.16 µM, first compound 10 µM
[31] = second compound 10 µM, first compound 0.0316 µM
[32] = second compound 10 µM, first compound 0.1 µM
[33] = second compound 10 µM, first compound 0.316 µM
[34] = second compound 10 µM, first compound 1 µM
[35] = second compound 10 µM, first compound 3.16 µM
[36] = second compound 10 µM, first compound 10 µM
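Note: spheroids exposed to agents for one week before reading.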
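Throughout, for viability, T/C: 100% = DMSO vehicle control viability.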

With `C=CC(=O)N1CCN(c2nc(=O)n(-c3c(C)ccnc3C(C)C)c3nc(-c4c(O)cccc4F)c(F)cc23)C(C)C1` (stereo unspecified) + Cc1[nH]c2ccc(F)cc2c1-c1nc2c3cccnc3c3ncccc3c2[nH]1 the IC50 (second compound 0.0316 µM) was greater than 10000 nM, the IC50 (second compound 0.1 µM) was greater than 10000 nM and the IC50 (second compound 0.316 µM) was greater than 10000 nM. For the same molecule, the IC50 (second compound 1 µM) was greater than 10000 nM, the IC50 (second compound 3.16 µM) was greater than 10000 nM and the IC50 (second compound 10 µM) was greater than 10000 nM. The viability, T/C [1] was 90.3%, the viability, T/C [2] was 101% and the viability, T/C [3] was 97.7%. For the same molecule, the viability, T/C [4] was 94.3%, the viability, T/C [5] was 124% and the viability, T/C [6] was 67.2%. It also gave a viability, T/C [7] of 93%, a viability, T/C [8] of 106% and a viability, T/C [9] of 117%. It also gave a viability, T/C [10] of 102%, a viability, T/C [11] of 102% and a viability, T/C [12] of 74.8%. It also gave a viability, T/C [13] of 80.9%, a viability, T/C [14] of 96.9% and a viability, T/C [15] of 106%. It also gave a viability, T/C [16] of 104%, a viability, T/C [17] of 100% and a viability, T/C [18] of 77.9%. For the same molecule, the viability, T/C [19] was 92.9%, the viability, T/C [20] was 102% and the viability, T/C [21] was 107%. For the same molecule, the viability, T/C [22] was 110%, the viability, T/C [23] was 128% and the viability, T/C [24] was 93.2%. It also gave a viability, T/C [25] of 93.9%, a viability, T/C [26] of 105% and a viability, T/C [27] of 98%. It also gave a viability, T/C [28] of 118%, a viability, T/C [29] of 121% and a viability, T/C [30] of 79.4%. It also gave a viability, T/C [31] of 98.2%, a viability, T/C [32] of 98.3% and a viability, T/C [33] of 118%. It also gave a viability, T/C [34] of 129%, a viability, T/C [35] of 129% and a viability, T/C [36] of 101%.
Work on `CC[C@@]1(O)C(=O)OCc2c1cc1n(c2=O)Cc2cc3c(CN(C)C)c(O)ccc3nc2-1` + Cc1[nH]c2ccc(F)cc2c1-c1nc2c3cccnc3c3ncccc3c2[nH]1 yielded an IC50 (second compound 0.0316 µM) of 54.2 nM, an IC50 (second compound 0.1 µM) of 65.6 nM and an IC50 (second compound 0.316 µM) of 66.3 nM. For the same molecule, the IC50 (second compound 1 µM) was 67.2 nM, the IC50 (second compound 3.16 µM) was 61 nM and the IC50 (second compound 10 µM) was 69.3 nM. The viability, T/C (second compound 0.0316 µM, first compound 0.000999 µM) was 108%, the viability, T/C (second compound 0.0316 µM, first compound 0.00316 µM) was 96.6% and the viability, T/C (second compound 0.0316 µM, first compound 0.00999 µM) was 123%. For the same molecule, the viability, T/C [1] was 69.8%, the viability, T/C (second compound 0.0316 µM, first compound 0.0999 µM) was 29% and the viability, T/C [3] was 9.65%. For the same molecule, the viability, T/C (second compound 0.1 µM, first compound 0.000999 µM) was 90.7%, the viability, T/C (second compound 0.1 µM, first compound 0.00316 µM) was 115% and the viability, T/C (second compound 0.1 µM, first compound 0.00999 µM) was 100%. For the same molecule, the viability, T/C [7] was 91.8%, the viability, T/C (second compound 0.1 µM, first compound 0.0999 µM) was 26% and the viability, T/C [9] was 10.2%. The viability, T/C (second compound 0.316 µM, first compound 0.000999 µM) was 104%, the viability, T/C (second compound 0.316 µM, first compound 0.00316 µM) was 120% and the viability, T/C (second compound 0.316 µM, first compound 0.00999 µM) was 109%. For the same molecule, the viability, T/C [13] was 84.7%, the viability, T/C (second compound 0.316 µM, first compound 0.0999 µM) was 30.9% and the viability, T/C [15] was 9.94%. The viability, T/C (second compound 1 µM, first compound 0.000999 µM) was 115%, the viability, T/C (second compound 1 µM, first compound 0.00316 µM) was 97% and the viability, T/C (second compound 1 µM, first compound 0.00999 µM) was 115%. The viability, T/C [19] was 95.3%, the viability, T/C (second compound 1 µM, first compound 0.0999 µM) was 26.1% and the viability, T/C [21] was 9.43%. For the same molecule, the viability, T/C (second compound 3.16 µM, first compound 0.000999 µM) was 115%, the viability, T/C (second compound 3.16 µM, first compound 0.00316 µM) was 108% and the viability, T/C (second compound 3.16 µM, first compound 0.00999 µM) was 103%. The viability, T/C [25] was 70.8%, the viability, T/C (second compound 3.16 µM, first compound 0.0999 µM) was 34.1% and the viability, T/C [27] was 10.8%. The viability, T/C (second compound 10 µM, first compound 0.000999 µM) was 91.8%, the viability, T/C (second compound 10 µM, first compound 0.00316 µM) was 98% and the viability, T/C (second compound 10 µM, first compound 0.00999 µM) was 97.9%. The viability, T/C [31] was 84.7%, the viability, T/C (second compound 10 µM, first compound 0.0999 µM) was 33.8% and the viability, T/C [33] was 15.6%.
For `COc1cc(C2c3cc4c(cc3C(OC3OC5COC(C)OC5C(O)C3O)C3COC(=O)C23)OCO4)cc(OC)c1O` (stereo unspecified) + Cc1[nH]c2ccc(F)cc2c1-c1nc2c3cccnc3c3ncccc3c2[nH]1, the IC50 (second compound 0.0316 µM) was 645 nM, the IC50 (second compound 0.1 µM) was 576 nM and the IC50 (second compound 0.316 µM) was 661 nM. For the same molecule, the IC50 (second compound 1 µM) was 628 nM, the IC50 (second compound 3.16 µM) was 653 nM and the IC50 (second compound 10 µM) was 556 nM. It also gave a viability, T/C [1] of 99.5%, a viability, T/C [2] of 72.6% and a viability, T/C [3] of 73%. The viability, T/C [4] was 41%, the viability, T/C [5] was 14% and the viability, T/C [6] was 9.66%. The viability, T/C [7] was 81%, the viability, T/C [8] was 102% and the viability, T/C [9] was 70.6%. The viability, T/C [10] was 29.8%, the viability, T/C [11] was 15.1% and the viability, T/C [12] was 10.7%. It also gave a viability, T/C [13] of 104%, a viability, T/C [14] of 94.9% and a viability, T/C [15] of 76.3%. For the same molecule, the viability, T/C [16] was 34%, the viability, T/C [17] was 18.7% and the viability, T/C [18] was 7.53%. It also gave a viability, T/C [19] of 84.2%, a viability, T/C [20] of 114% and a viability, T/C [21] of 82.2%. The viability, T/C [22] was 27.6%, the viability, T/C [23] was 15.4% and the viability, T/C [24] was 9.36%. The viability, T/C [25] was 74.8%, the viability, T/C [26] was 100% and the viability, T/C [27] was 73.1%. For the same molecule, the viability, T/C [28] was 35.6%, the viability, T/C [29] was 14.7% and the viability, T/C [30] was 11.6%. The viability, T/C [31] was 96.3%, the viability, T/C [32] was 94% and the viability, T/C [33] was 66.8%. For the same molecule, the viability, T/C [34] was 31.9%, the viability, T/C [35] was 17.1% and the viability, T/C [36] was 12.4%.
